# Source: patent publication US20240246960A1 (adMare Therapeutics Society, priority 2021, published 2024)
# Like-named read-outs stand apart in the source and are kept apart here.
# Legend:
# [1] = Microsomal stability assay, human liver microsomes; assay type: in vitro ADME; details: for Microsomal Stability (human) % rem. 60 min: Example 11; for microsomal CLint at 0.1 uM: both sexes, human, liver microsomes, pH 7.4, Example 11
# Description: Samples were then mixed and centrifuged. Supernatants were used for HPLC-MS/MS analysis. […] Peak areas corresponding to the test compound were recorded.
# [2] = Microsomal stability assay, mouse liver microsomes; details: Example 11; for microsomal CLint at 0.1 uM: male, CD-1, mouse, liver microsomes, pH 7.4, Microsomal Stability Mouse Clint
# [3] = system: pH2AX induction in HCT116 ATM−/− multicellular tumour spheroids; assay: Prodrug radiation sensitization in multicellular tumour spheroids (pH2AX induction following radiation); assay type: cell-based; details: Homo sapiens, HCT-116, 20 Gy
# Description: Prodrug compounds were assayed to determine their potency in 3D multicellular spheroids in media maintained under 20% vs […]. Multicellular tumour spheroids were grown to approximately 0.5 mm in diameter and irradiated with 20 Gy in combination with inhibitor test compounds to determine their potency using HCT116 and FaDu cell lines. Experiments were carried out in 96 well plates containing 0.7 mls of MEM media containing 10% FBS and 10 mM glucose under […] at 37° C. Following dilution of compounds 1:1000 from DMSO stocks, compounds were serially diluted from 10 μM down to 3.5 nM and 5-10 spheroids added. 96 well plates were constantly stirred to avoid spheroids settling during the course of the experiment. Endpoints were pDNA-PK (ser 2056) or pH2AX (ser 139) status in spheroid cryosections taken 1 or 2 hours following radiation and fixed immediately in formalin. Using tumour cell lines deficient in ATM improved the assay signal to noise and gH2AX readout. Using this assay prodrug activity could be compared in the more oxygenated outer spheroid layers versus less oxygenated hypoxic central cell layers.
# [4] = molecular target: T1, DNA-PK phosphorylation at Serine 2056 (Homo sapiens, UniProt P78527); assay: Cellular Assay for Inhibition of DNA-PK Phosphorylation at Serine 2056 (FaDu cells, neocarzinostatin, sandwich ELISA); assay type: cell-based; details: Table 2
# T1 construct: host or cells: FaDu
# Outline: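 Readout was pSer2056 and total DNA-PK, measured by sandwich ELISA on protein-normalized lysates. Prior to lysis, compound was applied to FaDu cells for 1 h (0.3% DMSO), followed by 2 h of 1 μg/mL neocarzinostatin. IC50 values were fitted from log concentration versus % inhibition normalized to DMSO and NCS controls.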
# [5] = system: FaDu cell line; assay: Prodrug activation in hypoxic stirred tumour cell suspensions; assay type: in vitro ADME; details: 10 μM, 4 hours
# Description: Prodrug compounds were assayed to determine their stability and rate of activation in stirred cell suspensions under 0.2 vs 5% oxygen. Compounds were diluted 1:1000 from DMSO stocks to 10 μM final concentration in tumour cell suspensions (1% by cell volume) in MEM media containing 10% FBS, 10 mM glucose & 3.7 g/L sodium bicarbonate. Cell lines assayed included A253, A549, Detroit562, FaDu, HCT116, HEP G2, HT29, SCC25, SCC9, SiHa & TC32. Compounds and cells were then incubated for 4 hours under constant mixing at 37° C. under 5% CO2 and either 0.2 or 5% O2. Following the incubation period cellular activation of the compounds was assayed via MeOH extraction and HPLC quantification.
# [6] = molecular target: T2, DNA-PK (Homo sapiens, UniProt P78527); assay: DNA-PK Assay for Biochemical Enzymatic Inhibition (ADP Glo Kinase assay); details: Table 2
# T2 construct: purchased Invitrogen PR9107A
# Outline: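 Human DNA-PK (25 ng) preincubated 15 min with compounds (ten three-fold dilutions) in HEPES pH 7.5, MgCl2, KCl, calf thymus DNA buffer, then substrate 434.4 μM and ATP 64.4 μM (final) for 60 min at room temperature. ADP-Glo luminescence; percent inhibition fitted by four-parameter regression for IC50.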
# [7] = 5% O2, inner layers, read-out: Prodrug 5% O2 Inner layers EC50
# [8] = 5% O2, outer layers, read-out: Prodrug 5% O2 Outer layers EC50
# [9] = 20% O2, outer layers, read-out: Prodrug 20% O2 Outer layers EC50
SMILES,Microsomal Stability (human) % rem. 60 min [1],microsomal CLint at 0.1 uM [1] [µL/min/mg],Microsomal Stability (mouse) % rem. 60 min [2],microsomal CLint at 0.1 uM [2] [µL/min/mg],"EC50 [3, 7] [nM]","EC50 [3, 8] [nM]","EC50 [3, 9] [nM]",IC50 [4] [nM],"Fraction of prodrug converted to active form, Hypoxic 0.2% O2 [5]","Fraction of prodrug converted to active form, Oxic 5% O2 [5]",IC50 [6] [nM]
"CC(c1cnc([N+](=O)[O-])n1C)N(c1cnc2cc(N3CCOCC3)nc(OC3CCC(Nc4ncccn4)CC3)c2c1)S(C)(=O)=O (centres unmarked) [LFA010, N-[1-(3-Methyl-2-nitro-imidazol-4-yl)ethyl]-N-[7-morpholino-5-[4-(pyrimidin-2-ylamino)cyclohexoxy]-1,6-naphthyridin-3-yl]methanesulfonamide]",E (% remaining = 0-25%),< 116,E (% remaining = 0-25%),> 116,10 to 500,10 to 500,1000 to 10000,1000 to 10000,A (A is 0.15 to 1),C (C is 0.02 to 0.05),10 to 150
"CC(c1cnc([N+](=O)[O-])n1C)N(c1cnc2cc(N3CCOCC3)nc(OC3CCC(Nc4ncc(C(F)(F)F)cn4)CC3)c2c1)S(C)(=O)=O (centres unmarked) [LFA024, N-[1-(3-Methyl-2-nitro-imidazol-4-yl)ethyl]-N-[7-morpholino-5-[4-[[5-(trifluoromethyl)pyrimidin-2-yl]amino]cyclohexoxy]-1,6-naphthyridin-3-yl]methanesulfonamide]",E (% remaining = 0-25%),< 116,E (% remaining = 0-25%),> 116,10 to 500,1000 to 10000,10000 to 100000,–,B (B is 0.05 to 0.15),D (D is 0 to 0.02),–
"CC(c1cnc([N+](=O)[O-])n1C)N(c1cnc2cc(N3CCOCC3)nc(OC3CCC(Nc4ncc(C#N)cn4)CC3)c2c1)S(C)(=O)=O (centres unmarked) [LFA027, N-[5-[4-[(5-Cyanopyrimidin-2-yl)amino]cyclohexoxy]-7-morpholino-1,6-naphthyridin-3-yl]-N-[1-(3-methyl-2-nitro-imidazol-4-yl)ethyl]methanesulfonamide]",E (% remaining = 0-25%),> 116,E (% remaining = 0-25%),> 116,10 to 500,500 to 1000,1000 to 10000,–,B (B is 0.05 to 0.15),C (C is 0.02 to 0.05),–
